In patent US20240358734A1, “DISCOVERY OF NOVEL TRPV1 CHANNEL BLOCKERS BY HIGH-THROUGHPUT SCREENING OF MARINE NATURAL PRODUCTS” (The Hong Kong University of Science and Technology, priority 2023, published 2024):
“Also recorded” adds a separate entry of the source.

Tests used:
human TRPV1 = biological target: T1, human TRPV1 (Homo sapiens, UniProt Q8NER1); assay: High-throughput FM4-64 dye-uptake assay in HEK293 cells transfected with hTRPV1-pIRES-eGFP; assay type: cell-based; conditions: for inhibitory effect on TRPV1 (relative n2/n1 ratio compared to vehicle control): screening, 5 μM FM4-64 dye and 100 μg/ml test compounds for 3 minutes, vs DMSO; for IC50: 1 μM capsaicin, 5 μM FM4-64, 3-minute incubation, cell-based system; for mean n2/n1 ratio: HEK293 cells transfected with human TRPV1, 96-well plate, groups incubated with drug, compared to capsaicin alone
T1 construct: expressed in transfected cells; host or cells: HEK293 (HEK293T) cells
Procedure: To screen potential modulators of TRPV1, a high-throughput screening system based on FM4-64 dye uptake was established using HEK293 cells transfected with hTRPV1-pIRES-eGFP and cultured in 96-well plates. The cells are incubation with 5 μM FM4-64 dye and 100 μg/ml test compounds for 3 minutes, washed, imaged using Zeiss Celldiscoverer 7, and analyzed using Image J (FIG. 2A). The number of GFP positive cells which is an indicator of the number of TRPV1 expressed cells, is calculated as n1 and the number of cells which are both GFP positive and dye uptake positive is calculated as n2 (FIG. 2B). The ratio (n2/n1) is a functional indicator of TRPV1 channel activity.
The performance of cC and cF with capsaicin and capsazepine, with HEK293 cells transfected with human TRPV1 and cultured on a 96-well plate are compared by the n2/n1 ratio of the groups incubated with cC and cF to those incubated with capsaicin alone and capsazepine (FIG. 3B).
The assay involves mixing 1 μM of capsaicin with varying concentrations of cC and 5 μM of FM4-64, and the mixture is added to each well for a 3-minute incubation.
Transfected HEK293 cells in a 96-well plate were divided into 8 groups, each containing 12 wells. 10-11 wells of each group were set as experimental groups in which cells were incubated with compound mixtures. 1-2 wells of each group were set as control groups in which cells were incubated with control solution A or B. One group was operated simultaneously to reduce the difference between wells. Cells in DMEM were washed with CaCl2-HBSS buffer once to remove the remnant medium. Subsequently, cells were incubated with the compound mixture or control solution for 2-3 min at RT. After FM4-64 incubation, cells were washed with CaCl2-HBSS buffer thrice to remove FM4-64 residuals. A group of cells was subjected to Zeiss Celldiscoverer 7 for fluorescent imaging.
To separate GFP and FM4-64 fluorescent dye, we used an LED light source at 470 nm to excite the GFP channel and light at 567 nm to excite the FM4-64 channel. 5× objective (Plan Apo, dry, autocorrect, NA 0.35), Orca camera (Orca Flash 4.0 v3), CO2 Module S1 incubation system, and Zenblue software were used for image recording. Each image comprises a GFP channel, FM4-64 channel, and bright field channel. And 4 non-overlapping images were taken for each well using the Tile function at Zenblue.
All images were analysed with ImageJ software. The same threshold would be applied to all the images in the same experiment group to select GFP-positive and dye uptake-positive cells. Cell number was calculated by the “Analyze particle” function in ImageJ. GFP-positive and dye uptake-positive cells were selected using the “AND” function in the image calculator. The number of GFP-positive cells (TRPV1 expressed cells) would be calculated as N1, and the number of cells that are both GFP positive and dye uptake positive would be calculated as N2. The ratio of […] represents the percentage of TRPV1 expressed cells that uptake FM4-64 fluorescent dye and would be used to analyse TRPV1's function.

TRPV1 channel (hTRPV1) = biological target: T2, TRPV1 channel (hTRPV1) (Homo sapiens, UniProt Q8NER1); assay: Excised inside-out patch-clamp of 3T3 cells transfected with hTRPV1-IRES-EGFP; assay type: cell-based; conditions: for inhibition of TRPV1 channels in patch-clamp macroscopic current: 10 nM capsaicin activation followed by 20 μM drug
T2 construct: expressed in transfected cells; host or cells: 3T3 cells
Text: A cell-based high-throughput drug screening method identifies potential TRPV1 inhibitors using the FM4-64 dye-uptake assay though the assay cannot conclusively distinguish the specific mechanism of blockage as numerous factors, such as other channels, pinocytosis, and drug-induced membrane potential alteration via pore-forming, can contribute to changes in FM4-64 dye uptake. A high-resolution patch clamp assays using an excised inside-out recording configuration allows investigation of the potential inhibitory effect of cC and cF on TRPV1, where changes in the patch-clamp macroscopic current before and after drug application indicates drug effectiveness.
3T3 cells were recorded using excised inside-out voltage clamp. Patch electrodes with a resistance of 4 MΩ±1.1 MΩ were pulled on a glass pipette puller (DMZ Zeitz-Puller). 3T3 cells were first transferred to a patch container to minimize the use of drugs and transfected with hTRPV1-IRES-EGFP. Immediately before assay, the cell medium was changed to PBS as well as the pipette medium. The dish was connected to the ground electrode via the salt bridge. Glass pipette filled with PBS was inserted into the patch electrode. A positive pressure of around 40 mmHg was applied to the pipette and soaked into the cell medium. The offset was tuned to near 0 pA when the holding potential was 0 mV. Pipette was moved to the cell, showing green-fluorescent and barely attached to the cell membrane. Then, removing the positive pressure in the pipette and changing the holding potential to −80 mV, forming a tight seal between the cell membrane and the pipette. The seal resistance should be >=1GQ. The sealed membrane was excised to form a patch in an inside-out configuration. The recording started with a positive holding potential.
The patch was activated by 10 nM of capsaicin to activate TRPV1 channels fully. After full activation, 20 μM of drugs (cC) was applied to test for their ability of TRPV1 inhibition. […]
Traces were collected with the pClamp10 software suite, and the patch-clamp macroscopic current was recorded. […]

[1] = tested on: capsaicin-/TRPV1-induced pain sensation; assay: Capsaicin-induced pain-sensation assay (paw-licking) in mice; assay type: in vivo, mice (C57B/6J); conditions: for mean licking time: drug mixed with capsaicin injected into right hind paw, 5 minutes observation
Procedure: The total time spent paw-licking, a typical nociception behaviour in mice, was recorded as an indicator of TRPV1 activation and compared with a positive control group injected with capsaicin alone. The potency of the injected drugs is related to the reduction of licking time.
The mice used were 4-6 weeks old C57B/6J provided by APCF in HKUST. All animal procedures were approved by the University Committee on Research Practices of the Hong Kong University of Science and Technology (Ethics protocol number: 2016074).
Capsaicin-induced pain-sensation assays in mice were performed where 10 μL of capsaicin (300 μM) or solvent control was injected into the top of the hind paw by using a fine (30-G) needle; capsaicin was dissolved in 0.3% ethanol and 3% (v/v) dimethyl sulfoxide (DMSO). The mice were wrapped gently in the investigator's hand and maintained on their back, with their snout pointing toward the small finger of the investigator; in this position, the mice remained unagitated during the injection. Mouse behavior was recorded using a digital camera (GoPro5).
The observation cage was made with the transparent large cage liner from APCF with bedding and food at the bottom. Mice were placed in the observation cage for 10 minutes at least 1 hour before the experiment was conducted to reduce the stress bought on by an unfamiliar environment. During the experiment, mice were captured by the left hand using the index finger and thumb to hold their neck. Then gradually pick up the mice and use the little finger to anchor its tail, such that its right hind paw will step on the ring finger or middle finger. Drugs were prepared in a 1.5 mL test tube. For the control group, 1 mM stock Capsaicin in DMSO is diluted to 100 μM using PBS. For the testing group, drugs originally dissolved in DMSO were diluted to the desired concentration in addition to capsaicin.
The injection was performed by shaking and spinning the drug-containing test tube for an even concentration of drug. A BD Ultra-fine 6 mm needle was used to suck out the 10 μL of drug from the needle. After removing excess air bubbles, 10 μL of the drug was injected into the captured mice's back of the right hind paw. The needle was removed slowly to inhibit blood and drug from leaking from the wound. After injection, mice were placed in the observation cage for 5 minutes to record the pain behavior. Video was filmed using a camera with the configuration of HD 30 fps. The environmental noise, light, and temperature are constant throughout the record. The mice's behavior was identified by experienced individuals who mapped pain behavior in seconds throughout the 5 minutes.

T2 sequence (Q8NER1 whole entry): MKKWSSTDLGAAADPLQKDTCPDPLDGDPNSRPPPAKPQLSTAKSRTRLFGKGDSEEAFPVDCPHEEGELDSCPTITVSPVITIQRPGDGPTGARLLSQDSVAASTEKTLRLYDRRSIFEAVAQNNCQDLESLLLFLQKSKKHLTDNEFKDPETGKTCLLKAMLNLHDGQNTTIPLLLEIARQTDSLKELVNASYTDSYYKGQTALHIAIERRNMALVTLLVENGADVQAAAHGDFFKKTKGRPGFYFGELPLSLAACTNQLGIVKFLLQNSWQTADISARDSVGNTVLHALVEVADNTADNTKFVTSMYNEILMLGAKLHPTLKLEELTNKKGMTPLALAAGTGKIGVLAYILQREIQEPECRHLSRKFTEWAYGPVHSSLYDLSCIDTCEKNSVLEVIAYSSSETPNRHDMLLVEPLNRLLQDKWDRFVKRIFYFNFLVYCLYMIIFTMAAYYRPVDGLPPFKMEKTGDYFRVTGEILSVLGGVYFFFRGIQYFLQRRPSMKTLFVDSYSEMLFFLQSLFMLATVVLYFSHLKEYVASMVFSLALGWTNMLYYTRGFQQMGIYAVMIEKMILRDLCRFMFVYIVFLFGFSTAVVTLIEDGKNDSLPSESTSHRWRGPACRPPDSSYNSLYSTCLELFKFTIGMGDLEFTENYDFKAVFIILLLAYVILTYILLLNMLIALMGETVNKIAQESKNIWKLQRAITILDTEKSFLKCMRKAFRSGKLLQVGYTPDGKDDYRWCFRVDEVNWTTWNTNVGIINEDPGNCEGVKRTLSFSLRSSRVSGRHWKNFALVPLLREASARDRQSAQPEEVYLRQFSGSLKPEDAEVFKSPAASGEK
T1 sequence (Q8NER1 whole entry): as above

Molecule	inhibitory effect on TRPV1 (relative n2/n1 ratio compared to vehicle control) (human TRPV1)	inhibition of TRPV1 channels in patch-clamp macroscopic current (TRPV1 channel (hTRPV1))	IC50 (human TRPV1) [nM]	mean n2/n1 ratio (human TRPV1)	mean licking time [1] [s]	also measured
CC(=O)Cc1cc2c(c(O)c1C(=O)O)-c1c(c(O)c3oc4c(O[C@@H]5OC(C(=O)O)=C[C@H](O)[C@H]5O)cccc4c(=O)c3c1O)CC2 [cA, chrexanthomycin A]	inhibitory effects on TRPV1	–	–	–	–	–
COc1c2c(c(O)c3c(=O)c4cccc(O[C@@H]5OC(C(=O)O)=C[C@H](O)[C@H]5O)c4oc13)-c1c(cc(CC(C)=O)c(C(=O)O)c1O)CC2 [cB, chrexanthomycin B]	inhibitory effects on TRPV1	–	–	–	–	–
C[C@@]1(O)Cc2cc3c(c(O)c2C(=O)O1)-c1c(c(O)c(O)c2c(=O)c4cccc(O[C@@H]5OC(C(=O)O)=C[C@H](O)[C@H]5O)c4oc12)CC3 [cF, chrexanthomycin F]	inhibitory effects on TRPV1	effectively inhibit TRPV1 channels	> 2000	0.068	–	–
COc1cc(CNC(=O)CCCC/C=C/C(C)C)ccc1O [capsaicin, reference compound]	–	–	–	–	–	mean licking time, capsaicin alone group ([1]; capsaicin alone injected into right hind paw (positive control)): over 50 seconds; mean n2/n1 ratio, capsaicin group (human TRPV1; capsaicin alone, HEK293 cells transfected with human TRPV1): 0.254
Oc1cc2c(cc1O)CN(C(=S)NCCc1ccc(Cl)cc1)CCC2 [capsazepine, reference compound]	–	–	–	0.0667	18	–
chrexanthomycin C [cC]	inhibitory effects on TRPV1; also recorded: lowest relative n2/n1 ratio	effectively inhibit TRPV1 channels	750 to 1000	0.0307	19	efficacy in blocking capsaicin-induced pain sensation relative to capsazepine ([1]; mouse model, ANOVA with post hoc test): as effective as capsazepine; average relative macroscopic current after drug addition (TRPV1 channel (hTRPV1); fully capsaicin-activated state (10 nM capsaicin), 20 μM drug, inside-out patch): 0.285
